Laboratory results as given in patent US8173840B2, “Compounds with high therapeutic index” (Signature R&D Holdings, LLC, priority 2003, dated 2012).
Like-named read-outs stand apart in the source and are kept apart here.

Assays:
Swiss Albino Mice [1] = experiment: 28-day chronic toxicity study of ibuprofen esters; settings: 28 days; for No of animals survived: 10 animals per group; for Average Change In body Weight / Percentage Change of body weight: surviving animals
Swiss Albino Mice [2] = settings: mouse, in vivo
[3] = test system: male albino mice (Swiss strain); experiment: Acetylcholine induced abdominal constriction (writhe) method; format: in vivo, mouse; settings: gavage
Protocol: Ibuprofen (racemic mixture) and ibuprofen (S)-(+) served as reference controls.
The study was conducted at two dose levels viz. 50 mg and 100 mg/kg body weight along with a vehicle control group. At each dose level 10 animals were used. All the doses were expressed as ibuprofen molar equivalents. The doses used as well as the molar equivalents are presented below.
The efficacy in terms of antagonizing effect on acetylcholine induced single writhe at two dose levels—50.0 and 100.0 mg/kg for the three formulations and reference controls are presented below.

[4] = test system: Spontaneously Hypertensive Rats (SHRs); experiment: Hemodynamics in Spontaneously Hypertensive Rats; format: in vivo, rat
Protocol: ACE inhibitors have been known to be useful in antihypertensive therapy for many years. Some ACE inhibitors are delivered orally as the parent drug (captopril) while others are delivered as pro-drugs in order to obtain clinically useful plasma concentrations. This study provides data on the effect of these various enalapril derivatives on hemodynamics in SHRs when given orally and compared to enalapril.
Briefly, SHRs fitted with right carotid catheters were orally gavaged with 100 mg/kg enalapril or equivalent does of the enalapril derivatives, and the blood pressures were followed continuously up to 3 hours and then a measurement at 24 hours. The animals were conscious throughout the procedure and were placed in a restrainer and hooked up to a pressure transducer and a signal processor. After 3 hours, the animals were placed back into their cage, and blood pressure was finally measured again at 24 hours.

[5] = test system: albino mice (Swiss strain); experiment: 14 day repeated dose toxicity study, intravenous route, propofol esters
albino mouse = experiment: Anesthetic effect in male albino mice, righting reflex as index
[6] = Solubility of propofol and its amino acid esters in water; settings: water, solubility in water
human volunteers = experiment: Analgesic and anti-inflammatory effects of S(+)Ibuprofen-L-Threonine Ester in human volunteers; format: in vivo
Protocol: Determination of the analgesic and anti-inflammatory effects of S(+)Ibuprofen-L-Threonine Ester in three human volunteers was conducted as follows:
Two male, age 49 and 50 having severe headache took 1 capsule containing S(+)Ibuprofen-L-Threonine Ester manufacturing and formulation under GMP conditions. The capsule contents were equivalent to 200 mg of racemic Ibuprofen. Relief from headache was reported after 15 min, and complete absence of any pain from headache was reported at the end of 1 hour, which lasted for another 12 hours.
Two males age 49 and 51 took 1 capsule each containing S(+)IbuprofenL-Threonine ester for arthritic knee pain, which was perceptible. […] Such amolearation of pain was further sustained for another 24 hours.

[7] = test system: fasted male albino rats (Wistar strain); experiment: Gastric mucosal irritation potential of ibuprofen esters; format: in vivo, rat; settings: two dose levels, 200 mg and 300 mg/kg
Patient = experiment: Human clinical trial of S(−)Ketorolac-L-Threonine ester (analgesic activity); format: in vivo; settings: for analgesic activity and side effects (words): 13 mg twice daily, oral capsules, Hydrochloride
Protocol: S(−)Ketorolac-L-Threonine ester capsules were filled using dextrose as the filler. […] For example, 13 mg of S(−)Ketorolac-L-Threonine ester was roughly equivalent to 13 mg of racemic Ketorolac tromethamine in tablet and/or capsule form.
A patient suffering from severe ankolysing spodolytis, arthritis and other inflammatory joint problems was under treatment with Indomethacin, 25 mg twice daily dose. In order the evaluate the analgesic activity of S(−) Ketorolac-L-Threonine ester, the patient was withdrawn from Indomethacin. After 24 hours, the pain returned and they were administered with 13 mg of S(−) Ketorolac L-Threonine ester, once in the morning and once in the evening. This was repeated for 5 days.
About 3 months later, the same above volunteer repeated the experiment. This time, after they went off the indomethacin, only one dose of 13 mg of S(−) Ketorolac-L-Threonine ester was administered. […] This treatment was continued for another 3 days of two capsules of 13 mg each. On the morning of the 6th day, they were switched back to Indomethacin.

[8] = 50.0 mg/kg in terms of Ibuprofen
[9] = 100.0 mg/kg in terms of Ibuprofen
[10] = 1 capsule equivalent to 200 mg racemic Ibuprofen

## CC(C)Cc1ccc(C(C)C(=O)O)cc1 (racemic) [Ibuprofen (racemic mixture), reference compound]
Swiss Albino Mice [1]
  No of animals survived: 6
  Average Change In body Weight: 2.97 gms
  Percentage Change of body weight: 12.54%
Swiss Albino Mice [2]; both
  animals that died: 40%
Swiss Albino Mice [2]; female
  Mortality: 3/5
Swiss Albino Mice [2]; male
  Mortality: 1/5
[3]; [8]
  Number of animals showing absence of single writhe (number of animals per dose = 10), One hour after dosing: 4
  Number of animals showing absence of single writhe (number of animals per dose = 10), Three hours after dosing: 2
[3]; [9]
  Number of animals showing absence of single writhe (number of animals per dose = 10), One hour after dosing: 6
  Number of animals showing absence of single writhe (number of animals per dose = 10), Three hours after dosing: 6

## CCOC(=O)[C@H](CCc1ccccc1)N[C@@H](C)C(=O)N1CCC[C@H]1C(=O)O [Enalapril]
[4]; 100 mg/kg oral gavage, at 3 hours and 24 hours
  reduction of blood pressure: approximately 20%
[4]; oral, 100 mg/kg enalapril or equivalent doses
  arterial blood pressure: reduced arterial blood pressure

## CC(C)c1cccc(C(C)C)c1OC(=O)CN.Cl [Propofol Glycine Ester, Amino-acetic acid 2,6-diisopropyl-phenyl ester, hydrochloride]
[5]; 14 days
  feed intake: normal and comparable to that of vehicle control group
[5]; 14 days, vs reference group
  behavior, feed consumption, organ weights, histopathology of different organs: normal and comparable to that of the animals of the reference group
[5]; IV daily 14 days
  animals exhibiting clinical symptoms of toxicity: None of the animals
[5]; IV daily 14 days, compared to vehicle control
  body weight gain: reduced in both the sexes
[5]; female animals
  MCV vs Propofol injection (RC) [p<0.05]: significantly decreased
  granulocytes counts vs Propofol injection (RC) [p<0.05]: significantly increased
[5]; females, 14 days
  reduced body weight gain compared to vehicle control: 26.94%
[5]; males, 14 days
  reduced body weight gain compared to vehicle control: 25.87%
Albino mouse; High Dose
  anesthetic effect, relative efficacy: more effective
Albino mouse; Low Dose
  anesthetic effect, relative efficacy: more effective
Albino mouse; albino mice
  efficacy in inducing anesthesia based on time required to regain the righting reflex (conclusion): relatively better efficacy
Albino mouse; low, intermediate, high dose
  dose response relation (statistical analysis): not statistically evident
[6]
  solubility: > 100 mg/mL

## CC(C)Cc1ccc([C@H](C)C(=O)O[C@H](C)[C@H](N)C(=O)O)cc1.Cl [S-(+)-Ibuprofen-L-threonine ester, 2(S)-Amino-3(R)-[2(S)-(4-isobutyl-phenyl)-propionyloxy]-butyric acid]
Human volunteers; 1 capsule
  amelioration of knee pain sustained for another: 24 h
Human volunteers; [10]
  absence of headache pain lasted for another: 12 h
  complete absence of any pain from headache reported at the end of: 1 h
Human volunteers; 1 capsule equivalent to 200 mg racemic Ibuprofen, two males with severe headache
  relief from headache reported after: 15 min
Human volunteers; 1 capsule, two males, after 12 hours
  arthritic knee pain: significant reduction is the pain associated with their right knee
Swiss Albino Mice [1]
  No of animals survived: 10
  Average Change In body Weight: −0.68 gms
  Percentage Change of body weight: −3.61%
Swiss Albino Mice [1]; both sexes
  animals that died: none of the animals
Swiss Albino Mice [1]; Female
  Mortality: Nil
Swiss Albino Mice [1]; Male
  Mortality: Nil
[3]; [8]
  Number of animals showing absence of single writhe (number of animals per dose = 10), One hour after dosing: 1
  Number of animals showing absence of single writhe (number of animals per dose = 10), Three hours after dosing: 0
[3]; [9]
  Number of animals showing absence of single writhe (number of animals per dose = 10), One hour after dosing: 3
  Number of animals showing absence of single writhe (number of animals per dose = 10), Three hours after dosing: 0
[7]
  irritation of gastric mucosa: significantly and completely non-toxic to GI mucosa in the rats tested

## S(−)-Ketorolac L-Threonine Ester, Hydrochloride [S(−) Ketorolac L-Threonine ester]
Patient
  analgesic activity and side effects (words): lack of pain, no gastric irritation symptoms, or other side effects
Patient; listed as S(−) Ketorolac-L-Threonine ester
  analgesic activity and side effects (words): lack of any pain
Patient; only one dose of 13 mg daily, after the 2nd day
  analgesic activity: complained of the pain resurfacing
